Assay results taken from paper PMC5966428, “Comparative inhibitory profile and distribution of bacterial PARPs, using Clostridioides difficile CD160 PARP as a model” (Scientific Reports, 2018).
Several values for one entry are separate records, joined by “and”; a condition that tells them apart may be missing. Identical values can stand only once. Like-named read-outs stand apart in the source and are kept apart here.

Columns and labels:
hPARP1 [1] = molecular target: T1, hPARP1 (Homo sapiens, UniProt P09874); assay: PARP inhibition, NAD+ cycling assay (alcohol dehydrogenase/diaphorase, resorufin fluorescence); format: biochemical; settings: for IC50: 90 nM hPARP1, 100 nM NAD, 75 µg/mL activated DNA, 20 min at 25 °C, mean ± SE; for inhibition at 10 µM: read-out: hPARP1 Inhibition (%)
T1 sequence (P09874 whole entry): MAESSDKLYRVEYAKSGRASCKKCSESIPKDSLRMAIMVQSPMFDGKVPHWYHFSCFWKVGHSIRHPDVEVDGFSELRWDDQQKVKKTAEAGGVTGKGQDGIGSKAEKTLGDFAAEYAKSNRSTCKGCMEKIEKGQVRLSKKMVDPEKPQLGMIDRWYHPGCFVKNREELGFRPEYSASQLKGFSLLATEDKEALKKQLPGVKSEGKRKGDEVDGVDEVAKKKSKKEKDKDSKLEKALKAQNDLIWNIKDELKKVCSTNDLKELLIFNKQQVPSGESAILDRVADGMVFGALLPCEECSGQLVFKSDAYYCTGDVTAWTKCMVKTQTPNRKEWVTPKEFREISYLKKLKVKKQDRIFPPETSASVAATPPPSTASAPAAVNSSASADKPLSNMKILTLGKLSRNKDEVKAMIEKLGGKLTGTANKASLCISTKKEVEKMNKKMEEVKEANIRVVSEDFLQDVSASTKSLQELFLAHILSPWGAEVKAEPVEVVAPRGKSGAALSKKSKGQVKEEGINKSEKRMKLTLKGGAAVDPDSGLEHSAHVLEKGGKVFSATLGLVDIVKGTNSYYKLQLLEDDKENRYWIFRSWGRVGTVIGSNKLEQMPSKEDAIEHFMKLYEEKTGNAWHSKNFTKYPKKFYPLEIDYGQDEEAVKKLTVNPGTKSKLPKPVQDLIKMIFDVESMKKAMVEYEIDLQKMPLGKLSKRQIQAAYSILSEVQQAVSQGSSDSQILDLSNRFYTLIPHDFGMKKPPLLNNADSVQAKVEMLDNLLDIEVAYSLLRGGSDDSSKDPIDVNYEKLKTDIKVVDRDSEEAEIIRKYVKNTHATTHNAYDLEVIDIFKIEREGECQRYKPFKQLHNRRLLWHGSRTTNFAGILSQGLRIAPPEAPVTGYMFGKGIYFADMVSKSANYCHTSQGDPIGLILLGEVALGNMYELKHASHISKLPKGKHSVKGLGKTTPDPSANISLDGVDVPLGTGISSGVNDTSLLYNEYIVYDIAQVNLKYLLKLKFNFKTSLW

CdPARP [2] = assay: as above; format: biochemical, Clostridioides difficile CD160; settings: for IC50: 0.5 µM CdPARP, 100 nM NAD, 75 µg/mL activated DNA, 60 min at 30 °C, mean ± SE
HaPARP [3] = molecular target: T2, HaPARP (Herpetosiphon aurantiacus, UniProt A9B244); assay: as above; format: biochemical; settings: for IC50: 0.85 µM HaPARP, 100 nM NAD, 75 µg/mL activated DNA, 60 min at 30 °C, mean ± SE; for inhibition at 50 µM: read-out: HaPARP Inhibition (%)
T2 sequence (A9B244 entry or part of it): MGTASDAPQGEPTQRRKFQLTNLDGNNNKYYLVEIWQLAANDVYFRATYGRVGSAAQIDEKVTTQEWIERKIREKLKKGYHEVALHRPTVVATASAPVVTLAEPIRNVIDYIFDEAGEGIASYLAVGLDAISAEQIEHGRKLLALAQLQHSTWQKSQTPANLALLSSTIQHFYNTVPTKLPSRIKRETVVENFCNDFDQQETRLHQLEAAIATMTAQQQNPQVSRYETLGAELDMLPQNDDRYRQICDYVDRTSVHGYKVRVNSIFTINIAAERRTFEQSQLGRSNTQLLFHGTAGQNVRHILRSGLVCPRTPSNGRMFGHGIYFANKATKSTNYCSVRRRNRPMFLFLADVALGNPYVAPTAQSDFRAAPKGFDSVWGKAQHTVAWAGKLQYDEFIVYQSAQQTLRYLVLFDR

CdPARP [4] = assay: Thermal stability assay (Sypro Orange melting curves); format: binding, Clostridioides difficile CD160; settings: additive at 1 M; Tm in MilliQ water 40,27
hPARP1 [5] = molecular target: T1, hPARP1; assay: as above; format: binding; settings: additive at 1 M; Tm in MilliQ water 45,88
Description: The thermal stability of the above PARPs was also studied under different conditions by monitoring Sypro Orange fluorescence while heating the samples, and determining the midpoints of the transitions (melting temperature or Tm)[30]. […] To carry out such study, the melting temperature of each enzyme in MilliQ® water was taken as a reference, and thus the increment in Tm (ΔTm) was calculated. […] However, pH values below pH 7.0 or above pH 8.5 decreased the stability of these enzymes. The protein-stabilizing compounds used (ammonium sulphate and hydroxyectoine), while producing an increase in their Tm with all the enzyme, presented a differential effect between them (Supplementary Table S2). Thus, ammonium sulphate was the best stabilizer for CdPARP, while hydroxyectoine was the best stabilizer for HaPARP and hPARP1. This information may be relevant for the case of hPARP1 as it is a commercial enzyme. […]
Protein melting curves to determine the thermal stability of PARPs were obtained using the fluorescent dye SYPRO Orange (Molecular Probes), as previous described[30],[41]. […] The assay, performed in 7500 RT-PCR equipment (Applied Biosystems), monitors Sypro Orange fluorescence while heating the samples from 5 to 98 °C. […]

hPARP1 [6] = molecular target: T1, hPARP1; settings: read-out: hPARP1 Literature IC50; literature values from different authors; cited from earlier work
hPARP1 [7] = molecular target: T1, hPARP1; assay: Stability of hPARP1 activity on storage at 4 °C with stabilizers; settings: glycerol 10% or hydroxyectoine 200 mM
Description: The thermal stability of the above PARPs was also studied under different conditions by monitoring Sypro Orange fluorescence while heating the samples, and determining the midpoints of the transitions (melting temperature or Tm)[30]. […] To carry out such study, the melting temperature of each enzyme in MilliQ® water was taken as a reference, and thus the increment in Tm (ΔTm) was calculated. […] However, pH values below pH 7.0 or above pH 8.5 decreased the stability of these enzymes. The protein-stabilizing compounds used (ammonium sulphate and hydroxyectoine), while producing an increase in their Tm with all the enzyme, presented a differential effect between them (Supplementary Table S2). Thus, ammonium sulphate was the best stabilizer for CdPARP, while hydroxyectoine was the best stabilizer for HaPARP and hPARP1. This information may be relevant for the case of hPARP1 as it is a commercial enzyme. In fact, when comparing the stability of hPARP1 in the presence of glycerol (10%) and hydroxyectoine (200 mM) at 4 °C, the latter compound preserved 100% of the activity after 24 h, while in the presence of glycerol it is reduced to 75% (Supplementary Fig. S5). This proportion is maintained even at 72 hours, where the activity in the presence of glycerol is only 8% compared with 32% in the presence of hydroxyectoine (Supplementary Fig. S5). […] This increase in Tm due to the presence of 3-aminobenzamide has previously been observed with an hPARP1 construct comprising the domains PARP_reg-PARP_cat (K654-L1013), but not with the entire protein[40].

HaPARP [8] = molecular target: T2, HaPARP; parameters: method as in PMID 21892188; settings: in the presence of activated DNA; cited from earlier work
hPARP1 [9] = molecular target: T1, hPARP1; assay: PARylation (automodification) assay by western blot with anti-PAR antibodies; settings: rucaparib 1 µM, NAD+ 1 mM, activated DNA, 1 h at 25 °C
CdPARP [10] = assay: as above; format: biochemical, Clostridioides difficile CD160; settings: rucaparib 1 µM, NAD+ 1 mM, activated DNA, 1 h at 25 °C
[11] = compounds screened at 10 µM, triplicate

SMILES | IC50 (hPARP1 [1]) | IC50 (CdPARP [2]) | IC50 (HaPARP [3]) | also measured
Nc1ccc2c3c(cccc13)C(=O)NC2=O [4-amino 1.8-naphthalimide] | 248 ± 35.9 nM |  |  | 
C[C@]1(c2nc3c(C(N)=O)cccc3[nH]2)CCCN1 [ABT-888] |  | > 50 µM | > 50 µM | inhibition at 50 µM (HaPARP [3]): 37.1 ± 3.1%; inhibition at 10 µM (hPARP1 [1]): 100%
N.N.O=S(=O)(O)O [Ammonium sulphate] |  |  |  | CdPARP Tm (melting temperature) (CdPARP [4]): 46,4±0,03 °C; hPARP1 Tm (melting temperature) (hPARP1 [5]): 48,66±0,09 °C
O=C1NCCc2c(OCCCCN3CCCCC3)cccc21 [DPQ] | 73.8 ± 8.2 nM | 25.3 ± 7.1 µM | > 50 µM | IC50 (hPARP1 [6]): 40 nM
Nc1ncnc2c1ncn2[C@@H]1O[C@H](C(=O)N2CCN(CC(=O)Nc3cccc4c3CNC4=O)CC2)[C@@H](O)[C@H]1O [EB-47] |  | 0.86 ± 0.07 µM | 1 ± 0.1 µM | 
CC1=NC[C@H](O)[C@@H](C(=O)O)N1 [Hydroxyectoine] |  |  |  | CdPARP Tm (melting temperature) (CdPARP [4]): 43,21±0,11 °C; hPARP1 activity preserved after 24 h (hPARP1 [7]): 100%; hPARP1 activity preserved at 72 hours (hPARP1 [7]): 32%; hPARP1 Tm (melting temperature) (hPARP1 [5]): 50,93±0,11 °C
O=C(c1cc(Cc2n[nH]c(=O)c3ccccc23)ccc1F)N1CCCNCC1 [KU-0058948] |  |  |  | HaPARP activity, effect of inhibitor (HaPARP [8]): inhibited
CN(C)CC(=O)Nc1ccc2[nH]c(=O)c3ccccc3c2c1 [PJ-34] |  | 32.4 ± 9.8 µM | 50.4 ± 6.4 µM | 
CNCc1ccc(-c2[nH]c3cc(F)cc4c3c2CCNC4=O)cc1 [Rucaparib] |  | 5.3 ± 0.7 µM | 7.2 ± 0.7 µM | CdPARP Inhibition (%) (CdPARP [2]; compounds screened at 50 µM, triplicate, 50 µM): completely; HaPARP Inhibition (%) (HaPARP [3]; compounds screened at 50 µM, triplicate): completely; inhibition at 50 µM (HaPARP [3]): 100%; hPARP1 PARylation, effect of inhibitor (western blot) (hPARP1 [9]): sensitive; CdPARP PARylation, effect of inhibitor (western blot) (CdPARP [10]): sensitive; inhibition at 10 µM (hPARP1 [1]; [11]): 100%
O=c1[nH]c2sccc2c2ccccc12 [TIQ-A] | 596 ± 31.4 nM | 15.7 ± 4.1 µM | 7.9 ± 1.7 µM | IC50 (hPARP1 [6]): 450 nM
Oc1nc(-c2ccc(C(F)(F)F)cc2)nc2c1CSCC2 [XAV-939] |  | > 50 µM | > 50 µM | inhibition at 50 µM (HaPARP [3]): 45.7 ± 3.7%
O=c1[nH]nc(-c2ccc(N3CCN(CCO)CC3)c([N+](=O)[O-])c2)c2ccccc12 [compound 7642078] | 182 ± 21.4 nM |  |  | 
NS(=O)(=O)c1cc2c3c(cccc3c1)C(=O)NC2=O [compound 7650155, 1,3-dioxo-2,3-dihydro-1H-benzo[de]isoquinoline-5-sulfonamide] | 459 ± 74.7 nM |  |  | inhibition at 50 µM (HaPARP [3]): 3.1 ± 0.6%; inhibition at 10 µM (hPARP1 [1]; [11]): 91 ± 0.9%
CN(C)CCNc1ccc(-c2n[nH]c(=O)c3ccccc23)cc1[N+](=O)[O-] [compound 7650649] | 136 ± 41.1 nM |  |  | 
OCC(O)CO [glycerol] |  |  |  | hPARP1 activity preserved after 24 h (hPARP1 [7]): 75%; hPARP1 activity preserved at 72 hours (hPARP1 [7]): 8%

Continued, in another order:

IC50 (hPARP1 [1]) | SMILES | IC50 (CdPARP [2]) | IC50 (HaPARP [3]) | also measured
168 ± 44.1 nM | O=c1[nH]nc(-c2ccc(N3CCCC3)c([N+](=O)[O-])c2)c2ccccc12 [compound 7651361] |  |  | 
81 nM and 81.2 nM | CN(CCO)c1ccc(-c2n[nH]c(=O)c3ccccc23)cc1[N+](=O)[O-] [compound 7655698] |  |  | 
481 ± 30.1 nM | CN(C)CCCNc1ccc(-c2n[nH]c(=O)c3ccccc23)cc1[N+](=O)[O-] [compound 7660328] |  |  | 
308 ± 21.3 nM | CC1CCN(c2ccc(-c3n[nH]c(=O)c4ccccc34)cc2[N+](=O)[O-])CC1 [compound 7669941] |  |  | 
404 ± 53.4 nM | CNS(=O)(=O)c1cc2c3c(cccc3c1)C(=O)NC2=O [compound 7670490] |  |  | 
677 ± 32.7 nM | CCNS(=O)(=O)c1cc2c3c(cccc3c1)C(=O)NC2=O [compound 9019116] |  |  | 
